The values below come from ChEMBL document CHEMBL5096192, “Recent advancements in anti-leishmanial research: Synthetic strategies and structural activity relationships” (Eur J Med Chem, 2021).

Values after ≈ are worked out from the molar mass of the structure shown.

For data set [1], the system named is Leishmania mexicana. Put plainly: Antileishmanial activity against promastigote form of Leishmania mexicana assessed as inhibition of parasite growth measured for 10 days by Neubauer counting chamber based analysis. Format: functional, organism-based. The note with it: 240 h.
For data set [2], the system named is Leishmania infantum. Put plainly: Antileishmanial activity against Leishmania infantum MHOM/MA/67/ITMAP263 intracellular amastigotes infected in primary peritoneal mouse macrophages assessed as inhibition of parasite growth by cell based assay. The settings on record: MHOM/MA/67/ITMAP263, Peritoneal macrophage. In kind it is functional, organism-based.
Data set [3] has as its system Leishmania panamensis. Put plainly: Antileishmanial activity against Leishmania panamensis MHOM/CO/87/UA140-EGFP intracellular amastigotes infected in U-937 cells assessed as parasite growth inhibition measured after 72 hrs by flow cytometry analysis. Format: functional, organism-based. The settings on record: U-937, 72 h.
In a further data set the test system is U-937. The data set can be described thus: Cytotoxicity against human U-937 cells assessed as reduction in cell viability measured after 72 hrs by MTT assay. Format: functional. The settings on record: read-out: LC50 (the source's name).
In data set [4] the test system is Leishmania panamensis. Put plainly: Antileishmanial activity against Leishmania panamensis MHOM/CO/87/UA140pIR-GFP intracellular amastigotes infected in human U-937 cells assessed as parasite growth inhibition measured after 72 hrs by flow cytometry analysis. The settings on record: U-937, 72 h. In kind it is functional, organism-based.
Data set [5] concerns Leishmania amazonensis. The data set can be described thus: Antileishmanial activity against promastigote form of Leishmania amazonensis MHOM/BR/77/LTB0016 incubated for 24 hrs by MTT assay. In kind it is functional, organism-based. The note with it: MHOM/BR/77/LTB0016, 24 h.
The subject of data set [6] is Leishmania major. Put plainly: Antileishmanial activity against Leishmania major axenic amastigotes assessed as parasite growth inhibition by Alamar blue assay. Format: functional, organism-based.
Data set [7] has as its system Leishmania infantum. Put plainly: Antileishmanial activity against promastigote form of Leishmania infantum BH 46 assessed as parasite growth inhibition measured after 48 hrs by Celltiter-Glo assay. The note with it: BH 46, 48 h. In kind it is functional, organism-based.
A short description of data set [8]: Cytotoxicity against BALB/c mouse peritoneal macrophages assessed as reduction in cell viability measured after 48 hrs by luminescence based CellTiter-Glo assay. Format: toxicity, Peritoneal macrophage.
The subject of data set [9] is Leishmania donovani. Put plainly: Antileishmanial activity against Leishmania donovani MHOM/IN/83/AG83 intracellular amastigotes infected in mouse RAW264.7 cells assessed as parasite growth inhibition incubated for 48 hrs by Giemsa staining based microscopic analysis. In kind it is functional, organism-based. The settings on record: MHOM/IN/83/AG83, RAW264.7, 48 h.

Data set [10] has as its system Leishmania donovani. Put plainly: Antileishmanial activity against promastigote form of Leishmania donovani MHOM/IN/83/AG83 assessed as inhibition of promastigote growth incubated for 48 hrs by MTT reduction assay. In kind it is functional, organism-based. The settings on record: MHOM/IN/83/AG83, 48 h.
Data set [11] has as its system Leishmania major. The data set can be described thus: Antileishmanial activity against Leishmania major JISH118 promastigote infected in human THP-1 cells assessed as parasite growth inhibition measured after 48 hrs by Giemsa staining based analysis. In kind it is functional, organism-based. The settings on record: JISH118, THP-1, 48 h.
Data set [12] has as its system Leishmania amazonensis. Put plainly: Antileishmanial activity against promastigote form of Leishmania amazonensis IFLA/BR/1967/PH8 assessed as parasite growth inhibition incubated for 72 hrs by MTT assay. In kind it is functional, organism-based. The settings on record: IFLA/BR/1967/PH8, 72 h.
The test system of data set [13] is Leishmania mexicana. The data set can be described thus: Inhibition of recombinant Leishmania mexicana CPB2.8 delta CTE at 20 uM.
Data set [14] concerns Leishmania donovani. Put plainly: Antileishmanial activity against promastigote form of wild-type Leishmania donovani MHOM/80/IN/Dd8 assessed as inhibition of parasite growth incubated for 48 hrs by MTT assay. Format: functional, organism-based. The settings on record: MHOM/80/IN/Dd8, 48 h.
Data set [15] has as its system Leishmania infantum. The data set can be described thus: Antileishmanial activity against promastigote form of Leishmania infantum MHOM/BR/70/BH46 promastigote assessed as parasite growth inhibition incubated for 72 hrs by Neubauer chamber analysis. In kind it is functional, organism-based. The note with it: MHOM/BR/70/BH46, 72 h.

Take `Fc1cccc(Nc2cnc3ccccc3c2)c1`: the half-inhibitory concentration (IC50) with Leishmania mexicana [1] amounted to 41.9 µM.

In the case of `COC(=O)c1ccc(NC(=O)CSc2nc3ccc(Cl)cc3n2Cc2cc(C)cc(C)c2)c(Cl)c1`, the IC50 with Leishmania infantum [2] worked out at 6.82 µM.

Regarding `O=C1C=C(c2ccc(F)cc2)S(=O)(=O)c2ccccc21`, the EC50 with Leishmania panamensis [3] amounted to 6.72 µM. Also, the CC50 in the data set on U-937 is 694 µM.

For the compound `Cn1cc[n+](CCCCCCCCOc2ccc(C(=O)/C=C/c3ccco3)cc2)c1`, in the data set with Leishmania panamensis [4], the EC50 turned out to be 8.39 µM.

As for `N=C(N)c1ccc(OCCCCCOc2ccc(C(=N)N)cc2)cc1` [PENTAMIDINE], the IC50 in the data set on Leishmania amazonensis [5] was 12.3 µM.

Regarding `COc1ccc(-c2nn(-c3ccccc3)cc2/C=C/C(=O)c2ccc([N+](=O)[O-])cc2)cc1`, the IC50 in the data set with Leishmania major [6] was 2.3 µM.

Take `COc1ccc(-c2csc(N/N=C/c3ccccn3)n2)cc1`: the IC50 in the data set with Leishmania infantum [7] is 2.78 µM. For the same compound, the CC50 at 48 h in data set [8] came out at 1.35 µM.

`COc1ccc(-c2nnc(/C=C/c3cn(-c4ccccc4)nc3-c3ccccc3)o2)cc1OC`: the IC50 in the data set with Leishmania donovani [9] came to 66.8 µg/mL (≈ 148 µM); in the data set with Leishmania donovani [10] it was 40.1 µg/mL (≈ 89 µM).

As for `Cc1ccc(-c2nn(-c3ccccc3)cc2/C=C/c2nnc(-c3sc4ccccc4c3Cl)o2)cc1`, the half-maximal inhibitory concentration (IC50) with Leishmania donovani [9] came out at 73.1 µg/mL (≈ 148 µM); in the data set on Leishmania donovani [10], 19 µg/mL (≈ 38.4 µM).

As for `c1cncc(Nc2nnc(-c3ccc(C(c4c[nH]c5ccccc45)c4c[nH]c5ccccc45)cc3)s2)c1`, the IC50 in the data set on Leishmania major [11] was found to be 0.7 µM.

Consider `O=C(C[Se]CC(=O)Nc1ccc([N+](=O)[O-])cc1)Nc1ccc([N+](=O)[O-])cc1`, for which the 50% inhibitory concentration (IC50) in the data set with Leishmania amazonensis [12] stood at 5.67 µg/mL (≈ 13 µM).

With `O=C(CC[Se]c1ccnc2cc(Cl)ccc12)Nc1ccc([N+](=O)[O-])cc1`, the IC50 with Leishmania amazonensis [12] is 10.8 µg/mL (≈ 24.9 µM).

`O=C(/C=C/c1ccco1)c1ccc(OCCCCCOc2cccc3cccnc23)cc1`: in the data set on Leishmania panamensis [4], the EC50 was found to be 13.8 µM.

Regarding `NC(=S)N/N=C(\C=C\c1ccc(Cl)cc1)c1ccccc1`, the IC50 with Leishmania amazonensis [5] is 5.22 µM.

Take `COc1cc(-c2nnc(/C=C/c3cn(-c4ccccc4)nc3-c3ccccc3)o2)cc(OC)c1OC`: the half-inhibitory concentration (IC50) in the data set on Leishmania donovani [9] worked out at 44.2 µg/mL (≈ 92 µM); in the data set on Leishmania donovani [10], 33.3 µg/mL (≈ 69.3 µM).

Consider `COc1ccc(-c2nn(-c3ccccc3)cc2/C=N/N=C/c2c(C)nn(-c3ccccc3)c2Cl)cc1`, for which, in the data set with Leishmania major [6], the concentration for half-maximal inhibition (IC50) is 1.45 µM.

Regarding `COC(=O)c1ccc(NC(=O)CSc2nc3ccccc3n2S(=O)(=O)c2cc(C)cc(C)c2)cc1`, in the data set on Leishmania mexicana [13], the inhibition was 97%.

Regarding `Fc1ccc(Nc2cnc3ccccc3c2)cc1`, in the data set with Leishmania mexicana [1], the IC50 was 41.9 µM.

In the case of `O=C1C=C(c2ccc(C(F)(F)F)cc2)S(=O)(=O)c2ccc(F)cc21`, the EC50 in the data set on Leishmania panamensis [3] came to 3.24 µM. Moreover, the CC50 in the data set on U-937 was 561 µM.

Turning to `CN(C)CCCn1cc(/C=C/C(=O)c2ccc(I)cc2)c2ccccc21`, the IC50 with Leishmania donovani [14] turned out to be 24.2 µM.

In the case of `S=C(N/N=C/c1c[nH]c2c(Br)cc(Br)cc12)Nc1ccccc1`, the IC50 in the data set on Leishmania infantum [15] is 5.6 µM.

Turning to `O=c1ccoc2cc(OCCCCOc3cccc4ccccc34)ccc12`, the EC50 in the data set with Leishmania panamensis [4] is 6.11 µg/mL.

With `CN(C)CCCn1cc(/C=C/C(=O)c2ccc(Cl)cc2)c2ccccc21`, the IC50 with Leishmania donovani [14] stood at 21.5 µM.

As for `Clc1ccc(COc2ccc(-c3nc4ccccc4o3)cc2)c(Cl)c1`, in the data set on Leishmania donovani [14], the IC50 was 57 µM.
